Changes are numbered by the printed parent chain. Read-outs that look alike come from different tables or passages of the source. Ends that are not written are not given here.
What was measured:
Assay in all cases: biochemical
Format in all cases: binding
[1] = target: HLA-DR DRB1*04:05 (Homo sapiens, UniProt P01903+P01911, A100R/A169T/D86S/F76Y/I96L/K127E/L162R/M171V/N62H/P40V/Q125Y/R42H/S133A/S149N/S66Y/V115G/V209L/W38E)
[2] = target: T1, HLA-DP DPA1*01:03/DPB1*04:01 (Homo sapiens, UniProt P04440+P20036)
T1 sequence (P20036 29-260): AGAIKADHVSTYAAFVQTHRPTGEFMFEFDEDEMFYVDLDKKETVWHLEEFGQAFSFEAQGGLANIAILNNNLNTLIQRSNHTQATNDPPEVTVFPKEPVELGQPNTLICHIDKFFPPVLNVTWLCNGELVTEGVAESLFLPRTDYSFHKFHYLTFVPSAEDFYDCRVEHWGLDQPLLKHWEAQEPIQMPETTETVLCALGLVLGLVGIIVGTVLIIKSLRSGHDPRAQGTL
T1 sequence (P04440 30-258): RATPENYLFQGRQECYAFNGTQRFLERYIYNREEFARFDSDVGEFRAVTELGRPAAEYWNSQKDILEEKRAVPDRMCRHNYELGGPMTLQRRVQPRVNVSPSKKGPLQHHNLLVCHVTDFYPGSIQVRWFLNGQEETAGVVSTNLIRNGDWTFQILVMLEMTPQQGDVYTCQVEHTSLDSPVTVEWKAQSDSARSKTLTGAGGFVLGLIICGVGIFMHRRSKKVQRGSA

[3] = target: HLA-DR DRB4*01:01 (Homo sapiens, UniProt P01903+P13762, G164S)
[4] = target: HLA-DR DRB5*01:01 (Homo sapiens, UniProt P01903+Q30154)
[5] = target: HLA-DR DRB1*16:02 (Homo sapiens, UniProt P01903+P01911, A100R/F76Y/I96L/Q99D/V115G)
[6] = target: HLA-DR DRB1*11:01 (Homo sapiens, UniProt P01903+P01911, A100R/A169T/A87E/I96F/K41T/L162R/M171V/P40S/Q125H/Q178H/Q39Y/Q99D/R42S/S66Y/T262R/V115G/W38E)
[7] = target: HLA-DR DRB1*15:01 (Homo sapiens, UniProt P01903+P01911)
[8] = target: HLA-DR DRB3*02:02 (Homo sapiens, UniProt P01903+P79483, A212P/D57E/F66Y/L67A/R103Q/R218S/R40L/S89Y/T80R/V86D/Y55F/Y59H); conditions: read-out: Binding capacity/IC50 (nM) DRB3*02:02
[9] = target: HLA-DR DRB1*09:01 (Homo sapiens, UniProt P01903+P01911, A100R/A103E/D57H/D86V/F55Y/F60I/F76Y/I96F/K127E/L162R/M171V/P40D/Q125H/Q99R/R33Q/R42F/S133A/S66N/T210M/V115G/W38K/Y107V/Y59G/Y89S)
[10] = target: HLA-DR DRB1*03:01 (Homo sapiens, UniProt P01903+P01911, A100K/A102G/A103R/A169T/F55Y/I96L/K41T/L162R/M171V/P40S/Q125H/Q178H/Q39Y/R42S/S66N/T106N/T262R/W38E/Y61H)
[11] = target: HLA-DR DRB1*12:01 (Homo sapiens, UniProt P01903+P01911, A100R/A169T/D57E/D86V/F55L/H45Y/K41T/L162R/M171V/P40S/Q125H/Q178H/Q39Y/Q99D/R42G/S66L/T262R/V114A/V67L/W38E/Y59H/Y61H/Y89S)
[12] = target: T2, HLA-DP DPA1*02:01/DPB1*14:01 (Homo sapiens, UniProt P04440+P20036, A65V/A84D/A85E/E86D/F191V/F38H/G113D/G114E/G40L/I94L/K142R/L158P/L37V/M105V/M116V/M62Q/P115A/Q81R/R125K/T114A/T199I/T259P)
T2 sequence (P20036 29-260 A42M/M62Q/Q81R/T114A/K142R/L158P/F191V/T259P): T1 sequence (P20036 29-260) with A14M, M34Q, Q53R, T86A, K114R, L130P, F163V, T231P
T2 sequence (P04440 30-258 L37V/F38H/G40L/A65V/A84D/A85E/E86D/I94L/M105V/G113D/G114E/P115A/M116V/R125K/T199I/R223Q): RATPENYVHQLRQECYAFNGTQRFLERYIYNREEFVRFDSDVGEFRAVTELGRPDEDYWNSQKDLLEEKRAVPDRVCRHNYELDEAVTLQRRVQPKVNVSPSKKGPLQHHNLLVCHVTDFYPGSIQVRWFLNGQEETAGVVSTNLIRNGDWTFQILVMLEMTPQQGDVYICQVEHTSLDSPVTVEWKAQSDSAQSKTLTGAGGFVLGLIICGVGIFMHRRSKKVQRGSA

[13] = target: T3, HLA-DP DPA1*01:03/DPB1*02:01 (Homo sapiens, UniProt P04440+P20036, A65V/A84D/A85E/K98E)
T3 sequence (P20036 29-260): T1 sequence (P20036 29-260)
T3 sequence (P04440 30-258 A65V/A84D/A85E/K98E): T1 sequence (P04440 30-258) with A36V, A55D, A56E, K69E

[14] = read-out: Binding capacity/IC50 (nM) DPA1*01:03 DPB1*04:01
[15] = read-out: Binding capacity/IC50 (nM) DRB5*01:01
[16] = read-out: Binding capacity/IC50 (nM) DPA1*01:03 DPB1*02:01
[17] = read-out: Binding capacity/IC50 (nM) DRB1*04:05
[18] = read-out: Binding capacity/IC50 (nM) DRB4*01:01
[19] = read-out: Binding capacity/IC50 (nM) DRB1*16:02
[20] = read-out: Binding capacity/IC50 (nM) DRB1*11:01
[21] = read-out: Binding capacity/IC50 (nM) DRB1*09:01
[22] = read-out: Binding capacity/IC50 (nM) DRB1*03:01
[23] = read-out: Binding capacity/IC50 (nM) DRB1*12:01
[24] = read-out: Binding capacity/IC50 (nM) DPA1*02:01 DPB1*14:01
[25] = read-out: Binding capacity/IC50 (nM) DRB1*15:01

CC[C@H](C)[C@H](NC(=O)[C@H](C)NC(=O)[C@@H](N)CCC(=O)O)C(=O)N[C@H](C(=O)N[C@@H](CCCNC(=N)N)C(=O)N[C@H](C(=O)N[C@@H](CC(C)C)C(=O)N[C@@H](CCC(N)=O)C(=O)N[C@@H](CCC(N)=O)C(=O)N[C@@H](CC(C)C)C(=O)N[C@@H](CC(C)C)C(=O)N[C@@H](Cc1ccccc1)C(=O)N[C@H](C(=O)N[C@@H](Cc1c[nH]cn1)C(=O)N[C@@H](Cc1ccccc1)C(=O)N[C@@H](CCCNC(=N)N)C(=O)N[C@H](C(=O)NCC(=O)N[C@@H](CS)C(=O)N[C@@H](CCC(N)=O)C(=O)N[C@@H](Cc1c[nH]cn1)C(=O)N[C@@H](CO)C(=O)N[C@@H](CCCNC(=N)N)C(N)=O)[C@@H](C)CC)[C@@H](C)CC)[C@@H](C)CC)[C@@H](C)CC [vpr(58-80)]
IC50 [1]: 294 nM | IC50 [2, 14]: 113 nM | IC50 [3]: 475 nM | IC50 [4, 15]: 443 nM | IC50 [5]: 588 nM | IC50 [6]: 724 nM | IC50 [7]: 149 nM | IC50 [8]: 4090 nM | IC50 [9]: 477 nM | IC50 [10]: 14400 nM | IC50 [11]: 845 nM | IC50 [12]: 3570 nM | IC50 [13, 16]: 717 nM

IRYPLTFGWCFKLVPVDPREVEEA-NH2 [nef(133-156)]
IC50 [1, 17]: 398 nM | IC50 [2, 14]: 44 nM | IC50 [3, 18]: 1640 nM | IC50 [4]: 317 nM | IC50 [5, 19]: 2740 nM | IC50 [6, 20]: 4540 nM | IC50 [7]: 718 nM | IC50 [8]: > 30000 nM | IC50 [9, 21]: 360 nM | IC50 [10, 22]: 704 nM | IC50 [11, 23]: 4430 nM | IC50 [12, 24]: 15900 nM | IC50 [13, 16]: 119 nM

SEELRSLYNTVATLYCVHQ-NH2 [p17(72-90)]
IC50 [1, 17]: 421 nM | IC50 [2, 14]: 240 nM | IC50 [3, 18]: 1100 nM | IC50 [4, 15]: 435 nM | IC50 [5, 19]: 140 nM | IC50 [6, 20]: 1070 nM | IC50 [7, 25]: 143 nM | IC50 [8]: 6290 nM | IC50 [9, 21]: 217 nM | IC50 [10, 22]: 652 nM | IC50 [11, 23]: 1680 nM | IC50 [12]: 9710 nM | IC50 [13, 16]: 67 nM

VVIQDNSDIKVVPRRKAKII-NH2 [integrase(249-268)]
IC50 [1]: 6080 nM | IC50 [2]: 9120 nM | IC50 [3, 18]: 847 nM | IC50 [4]: 46 nM | IC50 [5]: 500 nM | IC50 [6]: 28 nM | IC50 [7]: 139 nM | IC50 [8]: 4530 nM | IC50 [9]: 7040 nM | IC50 [10]: 90 nM | IC50 [11]: 2280 nM | IC50 [12, 24]: 3980 nM | IC50 [13]: 7420 nM

YAKMRSAHTNDVKQL-NH2 [RT(354-368)]
IC50 [1, 17]: 926 nM | IC50 [2, 14]: 3550 nM | IC50 [3, 18]: 1440 nM | IC50 [4, 15]: 80 nM | IC50 [5, 19]: 58 nM | IC50 [6, 20]: 1760 nM | IC50 [7, 25]: 773 nM | IC50 [8]: 2850 nM | IC50 [9, 21]: 66 nM | IC50 [10, 22]: 7100 nM | IC50 [11, 23]: 4840 nM | IC50 [12]: 919 nM | IC50 [13, 16]: 687 nM

— publication PMC3445454, “Broad and Cross-Clade CD4^+ T-Cell Responses Elicited by a DNA Vaccine Encoding Highly Conserved and Promiscuous HIV-1 M-Group Consensus Peptides” (PLoS ONE, 2012)
